Laboratory results: patent publication US5670487A, “Composition for protecting and/or combating blemishes on and/or ageing of the skin, and uses thereof” (L'Oreal, priority 1995, dated 1997)

Key:
skin = assay: UVA sun protection factor (PF = protected MPD/non-protected MPD) on the back of volunteers; format: in vivo, human (healthy adults of both sexes); settings: for UVA skin protection (assessment in words): based on the UVA sun protection factors 1.6, 2.7 and 3.4; for UVA sun protection factor: 2±0.02 μl/cm^2, UVA 320-400 nm, read approximately 2 h after exposure
Protocol: Potentiation of the sun protection factor
The aim of the test is to show the ability of the compositions of the invention to protect the skin against UVA by virtue of a high UVA protection factor.
Ten individuals were tested. They were healthy adults of both sexes. An area of skin located on the back of each of the volunteers was subjected to solar exposure after defining the skin type. The exposure was carried out with a UVA spectrum alone (320 nm to 400 nm), supplied by a 150 W xenon lamp fitted with a WG 335 filter 3 mm in thickness and a UG 11 filter 1 mm in thickness. The UV radiation was conducted by 6 liquid, flexible light guides, making it possible to deliver doses of from 6 to 45 joules/cm^2 in a 50% geometric progression.
The application was a single dose, in the open air, of 2±0.02 μl/cm^2, i.e., approximately 0.15 ml of test product per individual, on an area of 75 cm^2, measured with a sterile 1 ml Tuberculin syringe graduated to 1/1000 and having a centered cone.
Exposure was approximately 15 min after application of the product. Macroscopic examination of the exposed areas of the skin was performed approximately 2 h after exposure, to evaluate the immediate and permanent pigmentation reactions. The minimum pigmenting dose on the area protected by the product applied (protected MPD) and that on the area in which no product had been applied (non-protected MPD) was performed simultaneously.
The protection factor PF is then calculated as follows:
PF=protected MPD/non-protected MPD
The test was carried out with 3 compositions, each having the same support, containing arbutin, the UV screening agent (terephthalylidene dicamphor sulphonic acid), and the combination of arbutin and the UV screening agent, respectively.

[1] = Anti-free-radical activity: inhibition of the production of ethylene from methionine under UVA; format: biochemical; settings: UVA 365 nm, 1 J/cm^2, pH 7.4, average of 3 tests
Protocol: The following were introduced in order into a Petri dish 32 mm in diameter:
1.4 ml of 50 mM phosphate buffer (pH=7.4), 100 μl of 200 mM methionine solution
100 μl of 4 mM ferric chloride solution,
100 μl of 4 mM EDTA (ethylenediaminetetraacetic acid) solution, 100 μl of 400 mM NADH (nicotinamideadeninedinucleotide, reduced form) solution, 100 μl of 2 mM riboflavin solution.
Total volume of the mixture: 2 ml.
The Petri dish was then placed in an aluminum crucible and covered with a quartz cell so as to be exposed to UVA rays (365 nm) at a dose of 1 J/cm^2. The mixture, composed of NADH, riboflavin, ferric chloride and EDTA, when subjected to exposure to the UVA rays, generates reduced oxygen species: O2 .cndot.^-, H2 O2, and mainly the hydroxyl radical .cndot.OH. The latter reacts with methionine to release ethylene. The amount of ethylene was measured by gas chromatography.
The smaller the amount of free radicals formed, the smaller the amount of ethylene released. The results are expressed as a percentage of inhibitory power corresponding to the percentage decrease in the production of ethylene relative to the control (containing 100 μl of phosphate buffer replacing the test product).
The following substances studied were introduced using a micropipette: […]
terephthalylidene dicamphor sulphonic acid […]

Structure (SMILES)	UVA skin protection (assessment in words) (skin)	UVA sun protection factor (skin; composition with 5% arbutin)	% inhibition (percentage decrease in the production of ethylene relative to the control) ([1]; 0.2% arbutin) [%]	UVA sun protection factor (skin; composition with 1% terephthalylidene dicamphor sulphonic acid)	% inhibition (percentage decrease in the production of ethylene relative to the control) ([1]; 0.2% terephthalylidene dicamphor sulphonic acid) [%]
OC[C@H]1O[C@@H](Oc2ccc(O)cc2)[C@H](O)[C@@H](O)[C@@H]1O [arbutin, hydroquinone-beta-D-glucopyranoside]	negligible skin protection	1.6	39.0 ± 0.6		
CC1(C)C2CCC1(CS(=O)(=O)O)C(=O)C2=Cc1ccc(C=C2C(=O)C3(CS(=O)(=O)O)CCC2C3(C)C)cc1 [benzene-1,4-bis(3-methylidenecamphor-10-sulphonic acid)]	significant skin protection			2.7	44.7 ± 1.7
